Results taken from patent US10821115B2, “Compounds that inhibit Mcl-1 protein” (priority 2017, dated 2020).
Where two headings read alike, the source gives them in different places.

Assays:
[1] = test system: human multiple myeloma cell line, OPM-2; assay: Cell viability assay (OPM-2 10 FBS), CellTiter-Glo; assay type: cell-based
In short: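 Serially diluted test compounds are incubated 16 h with cells (3000/well) in RPMI 1640 supplemented with 10% FBS. Viability is then measured by luminescence and IC50 calculated by 4-parameter logistic fit.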

[2] = target: recombinant human Mcl-1 (residues 171-327) / Bim interaction (Homo sapiens (Human), UniProt Q07820); assay: biochemical; assay type: binding; details: read-out: Mcl-1 HTRF IC50
Chain of recombinant human Mcl-1 (residues 171-327) / Bim interaction (Q07820 171-327): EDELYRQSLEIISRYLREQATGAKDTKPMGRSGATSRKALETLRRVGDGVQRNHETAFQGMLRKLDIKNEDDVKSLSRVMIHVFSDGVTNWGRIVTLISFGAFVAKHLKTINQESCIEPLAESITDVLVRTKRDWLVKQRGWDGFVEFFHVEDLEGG

[3] = read-out: OPM-2 10% FBS IC50 IP, OPM-2 cells, 10% FBS, 16 h, CellTiter-Glo
[4] = Homo sapiens, OPM-2, 16 h, read-out: OPM-2 10% FBS IC50 IP, OPM-2 cells, 10% FBS, 16 h, CellTiter-Glo
[5] = TR-FRET, Mcl-1(171-327) / biotin-Bim (51-76)

Compound | IC50 [1, 3] | IC50 [2] | IC50 [1, 4] | IC50 [2, 5]
C[C@@H]1[C@@H](C)CCC[C@@](O)(CS(=O)(=O)N(C)C)[C@@H]2CC[C@H]2CN2C[C@@]3(CCCc4cc(Cl)ccc43)COc3ccc(cc32)C(=O)NS1(=O)=O [Example 100099, 1-((1S,3′R,6′R,7′S,11′S,12′R)-6-chloro-7′-hydroxy-11′,12′-dimethyl-13′,13′-dioxido-15′-oxo-3,4-dihydro-2H-spiro[naphthalene-1,22′-[20]oxa[13]thia[1,14]diazatetracyclo [14.7.2.0~3,6~.0~19,24~]pentacosa[16,18,24]trien]-7′-yl)-N,N-dimethylmethanesulfonamide] | 349 nM | 0.659 nM |  | 
C[C@@H]1[C@@H](C)CCC[C@@](O)(CS(=O)(=O)N(C)C)[C@@H]2CC[C@H]2CN2C[C@@]3(CCCc4cc(Cl)ccc43)COc3ccc(cc32)C(=O)NS1(=O)=O [Example 100100, 1-((1S,3′R,6′R,7′S,11′S,12′R)-6-chloro-7′-hydroxy-11′,12′-dimethyl-13′,13′-dioxido-15′-oxo-3,4-dihydro-2H-spiro[naphthalene-1,22′-[20]oxa[13]thia[1,14]diazatetracyclo [14.7.2.0~3,6~.0~19,24~]pentacosa[16,18,24]trien]-7′-yl)-N,N-dimethylmethanesulfonamide] | 1320 nM | 2.1 nM |  | 
C[C@@H]1[C@@H](C)C/C=C/[C@@](O)(CC(=O)O)[C@@H]2CC[C@H]2CN2C[C@@]3(CCCc4cc(Cl)ccc43)COc3ccc(cc32)C(=O)NS1(=O)=O [Example 100101, ((1S,3′R,6′R,7′S,8′E,11′S,12′R)-6-chloro-7′-hydroxy-11′,12′-dimethyl-13′,13′-dioxido-15′-oxo-3,4-dihydro-2H-spiro[naphthalene-1,22′-[20]oxa[13]thia[1,14]diazatetracyclo [14.7.2.0~3,6~.0~19,24~]pentacosa[8,16,18,24]tetraen]-7′-yl)acetic acid] |  |  | 2600 nM | 0.062 nM
C[C@@H]1[C@@H](C)CCCC2(OCCO2)[C@@H]2CC[C@H]2CN2C[C@@]3(CCCc4cc(Cl)ccc43)COc3ccc(cc32)C(=O)NS1(=O)=O [Example 100102, (3′R,6′R,11′S,12′R,22′S)-6″-chloro-11′,12′-dimethyl-3″,4″-dihydro-2″H,15′H-dispiro[1,3-dioxolane-2,7′-[20]oxa[13]thia[1,14]diazatetracyclo [14.7.2.0~3,6~.0~19,24~]pentacosa[16,18,24]triene-22′,1″-naphthalen]-15′-one 13′,13′-dioxide] |  |  | 1430 nM | 0.99 nM
C[C@@H]1[C@@H](C)CCC[C@@](O)(Cc2ccccn2)[C@@H]2CC[C@H]2CN2C[C@@]3(CCCc4cc(Cl)ccc43)COc3ccc(cc32)C(=O)NS1(=O)=O [Example 100104, (1S,3′R,6′R,7′R,11′S,12′R)-6-chloro-7′-hydroxy-11′,12′-dimethyl-7′-(2-pyridinylmethyl)-3,4-dihydro-2H,15′H-spiro[naphthalene-1,22′-[20]oxa[13]thia[1,14]diazatetracyclo [14.7.2.0~3,6~.0~19,24~]pentacosa[16,18,24]trien]-15′-one 13′,13′-dioxide] | 250 nM |  |  | 0.599 nM
C[C@@H]1[C@@H](C)CCC[C@@](O)(Cc2ccccn2)[C@@H]2CC[C@H]2CN2C[C@@]3(CCCc4cc(Cl)ccc43)COc3ccc(cc32)C(=O)NS1(=O)=O [Example 100105, (1S,3′R,6′R,7′R,11′S,12′R)-6-chloro-7′-hydroxy-11′,12′-dimethyl-7′-(2-pyridinylmethyl)-3,4-dihydro-2H,15′H-spiro[naphthalene-1,22′-[20]oxa[13]thia[1,14]diazatetracyclo [14.7.2.0~3,6~.0~19,24~]pentacosa[16,18,24]trien]-15′-one 13′,13′-dioxide] | 3660 nM |  |  | 5.93 nM
C[C@@H]1[C@@H](C)C/C=C/[C@@](O)([C@@H]2CCN(C)C2=O)[C@@H]2CC[C@H]2CN2C[C@@]3(CCCc4cc(Cl)ccc43)COc3ccc(cc32)C(=O)NS1(=O)=O [Example 100106, (1S,3′R,6′R,7′S,8′E,11′S,12′R)-6-chloro-7′-hydroxy-11′,12′-dimethyl-7′-((3S)-1-methyl-2-oxo-3-pyrrolidinyl)-3,4-dihydro-2H,15′H-spiro[naphthalene-1,22′-[20]oxa[13]thia[1,14]diazatetracyclo [14.7.2.0~3,6~.0~19,24~]pentacosa[8,16,18,24]tetraen]-15′-one 13′,13′-dioxide] | 121 nM |  |  | 0.143 nM
C[C@@H]1[C@@H](C)CCC[C@@](O)(CC(=O)N2CCCC2)[C@@H]2CC[C@H]2CN2C[C@@]3(CCCc4cc(Cl)ccc43)COc3ccc(cc32)C(=O)NS1(=O)=O [Example 100107, (1S,3′R,6′R,7′R,11′S,12′R)-6-chloro-7′-hydroxy-11′,12′-dimethyl-7′-(2-oxo-2-(1-pyrrolidinyl)ethyl)-3,4-dihydro-2H,15′H-spiro[naphthalene-1,22′-[20]oxa[13]thia[1,14]diazatetracyclo [14.7.2.0~3,6~.0~19,24~]pentacosa[16,18,24]trien]-15′-one 13′,13′-dioxide] |  |  | 181 nM | 0.296 nM
C[C@@H]1[C@@H](C)CCC[C@@](O)(CC(=O)N2CCCC2)[C@@H]2CC[C@H]2CN2C[C@@]3(CCCc4cc(Cl)ccc43)COc3ccc(cc32)C(=O)NS1(=O)=O [Example 100108, (1S,3′R,6′R,7′R,11′S,12′R)-6-chloro-7′-hydroxy-11′,12′-dimethyl-7′-(2-oxo-2-(1-pyrrolidinyl)ethyl)-3,4-dihydro-2H,15′H-spiro[naphthalene-1,22′-[20]oxa[13]thia[1,14]diazatetracyclo [14.7.2.0~3,6~.0~19,24~]pentacosa[16,18,24]trien]-15′-one 13′,13′-dioxide] | 358 nM |  |  | 0.436 nM
C[C@@H]1[C@@H](C)C/C=C/[C@@](O)([C@@H]2CCN(C)C2=O)[C@@H]2CC[C@H]2CN2C[C@@]3(CCCc4cc(Cl)ccc43)COc3ccc(cc32)C(=O)NS1(=O)=O [Example 100109, (1S,3′R,6′R,7′S,8′E,11′S,12′R)-6-chloro-7′-hydroxy-11′,12′-dimethyl-7′-((3S)-1-methyl-2-oxo-3-pyrrolidinyl)-3,4-dihydro-2H,15′H-spiro[naphthalene-1,22′-[20]oxa[13]thia[1,14]diazatetracyclo [14.7.2.0~3,6~.0~19,24~]pentacosa[8,16,18,24]tetraen]-15′-one 13′,13′-dioxide] | 2140 nM |  |  | 0.486 nM
CCN(CC)C(=O)C[C@]1(O)CCC[C@H](C)[C@@H](C)S(=O)(=O)NC(=O)c2ccc3c(c2)N(C[C@@H]2CC[C@H]21)C[C@@]1(CCCc2cc(Cl)ccc21)CO3 [Example 100111, 2-((1S,3′R,6′R,7′R,11′S,12′R)-6-chloro-7′-hydroxy-11′,12′-dimethyl-13′,13′-dioxido-15′-oxo-3,4-dihydro-2H-spiro[naphthalene-1,22′-[20]oxa[13]thia[1,14]diazatetracyclo [14.7.2.0~3,6~.0~19,24~]pentacosa[16,18,24]trien]-7′-yl)-N,N-diethylacetamide] | 687 nM | 0.352 nM |  | 
CCN(CC)C(=O)C[C@]1(O)CCC[C@H](C)[C@@H](C)S(=O)(=O)NC(=O)c2ccc3c(c2)N(C[C@@H]2CC[C@H]21)C[C@@]1(CCCc2cc(Cl)ccc21)CO3 [Example 100112, 2-((1S,3′R,6′R,7′R,11′S,12′R)-6-chloro-7′-hydroxy-11′,12′-dimethyl-13′,13′-dioxido-15′-oxo-3,4-dihydro-2H-spiro[naphthalene-1,22′-[20]oxa[13]thia[1,14]diazatetracyclo [14.7.2.0~3,6~.0~19,24~]pentacosa[16,18,24]trien]-7′-yl)-N,N-diethylacetamide] | 1800 nM | 1.29 nM |  | 
C[C@@H]1[C@@H](C)CCC[C@@](O)(Cc2ccncn2)[C@@H]2CC[C@H]2CN2C[C@@]3(CCCc4cc(Cl)ccc43)COc3ccc(cc32)C(=O)NS1(=O)=O [Example 100113, (1S,3′R,6′R,7′R,11′S,12′R)-6-chloro-7′-hydroxy-11′,12′-dimethyl-7′-(4-pyrimidinylmethyl)-3,4-dihydro-2H,15′H-spiro[naphthalene-1,22′-[20]oxa[13]thia[1,14]diazatetracyclo [14.7.2.0~3,6~.0~19,24~]pentacosa[16,18,24]trien]-15′-one 13′,13′-dioxide] | 70 nM |  |  | 0.182 nM
C[C@@H]1[C@@H](C)CCC[C@@](O)(Cc2ccncn2)[C@@H]2CC[C@H]2CN2C[C@@]3(CCCc4cc(Cl)ccc43)COc3ccc(cc32)C(=O)NS1(=O)=O [Example 100114, (1S,3′R,6′R,7′R,11′S,12′R)-6-chloro-7′-hydroxy-11′,12′-dimethyl-7′-(4-pyrimidinylmethyl)-3,4-dihydro-2H,15′H-spiro[naphthalene-1,22′-[20]oxa[13]thia[1,14]diazatetracyclo [14.7.2.0~3,6~.0~19,24~]pentacosa[16,18,24]trien]-15′-one 13′,13′-dioxide] | 491 nM |  |  | 1.05 nM
C[C@@H]1[C@@H](C)CCC[C@@]2(OCCS2)[C@@H]2CC[C@H]2CN2C[C@@]3(CCCc4cc(Cl)ccc43)COc3ccc(cc32)C(=O)NS1(=O)=O [Example 100115, (1S,3′R,6′R,7′S,11′S,12′R)-6-chloro-11′,12′-dimethyl-3,4-dihydro-2H,15′H-dispiro[naphthalene-1,22′-[20]oxa[13]thia[1,14]diazatetracyclo [14.7.2.0~3,6~.0~19,24~]pentacosa[16,18,24]triene-7′,2″-[1,3]oxathiolan]-15′-one 13′,13′-dioxide] |  |  | 2840 nM | 4.49 nM
